Measured values: patent US8722849B2, “Polypeptides” (Novo Nordisk A/S, priority 2011, dated 2014)
Starred links: 1 amine or outer side, 2 acyl side, 3 side chain; linkers in the order of their positions; H or OH if unused. Positions of bridges follow the written chain, without caps; N, C: chain ends. Non-standard residues stand in square brackets, D forms with d. Residues, ends and D or L forms follow the SMILES beside them. *: point of attachment. C20 diacid = O=C(O)CCCCCCCCCCCCCCCCCCC(=O)*; C18 diacid = O=C(O)CCCCCCCCCCCCCCCCC(=O)*; γGlu = O=C(O)[C@H](CCC(=O)[*:2])N[*:1]; Orn = NCCC[C@H](N)C(=O)O; AEEA = NCCOCCOCC(=O)O

Columns and labels:
[1] = system: food intake; assay: Assay (I) efficacy testing on appetite (food intake), ad libitum fed rat model; type: in vivo, Sprague Dawley (SD) rats; details: 3 nmol/kg
Summary of the method: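 Food consumption was logged per animal every hour up to 7 h and again at 24 h (occasionally 48 h) after a single 0.01–3 mg/kg dose, given sc, po or ip at dark-phase onset. Ad libitum fed SD rats, 200–250 g, kept on inverted light/dark cycle; vehicle group included, outliers removed by Grubbs test.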

[2] = biological target: T1, human amylin receptor (amylin 3(a) receptor: human calcitonin receptor + RAMP-3) (Homo sapiens, UniProt O60896+P30988); assay: Assay (II)a functional CRE-luciferase assay, human amylin receptor; type: cell-based; details: Table 2; BHK amylin 3(a)-receptor/CRE-luc cells
T1 construct: expressed in transfected cells; host or cells: BHK570
T1 sequence (P30988 25-474): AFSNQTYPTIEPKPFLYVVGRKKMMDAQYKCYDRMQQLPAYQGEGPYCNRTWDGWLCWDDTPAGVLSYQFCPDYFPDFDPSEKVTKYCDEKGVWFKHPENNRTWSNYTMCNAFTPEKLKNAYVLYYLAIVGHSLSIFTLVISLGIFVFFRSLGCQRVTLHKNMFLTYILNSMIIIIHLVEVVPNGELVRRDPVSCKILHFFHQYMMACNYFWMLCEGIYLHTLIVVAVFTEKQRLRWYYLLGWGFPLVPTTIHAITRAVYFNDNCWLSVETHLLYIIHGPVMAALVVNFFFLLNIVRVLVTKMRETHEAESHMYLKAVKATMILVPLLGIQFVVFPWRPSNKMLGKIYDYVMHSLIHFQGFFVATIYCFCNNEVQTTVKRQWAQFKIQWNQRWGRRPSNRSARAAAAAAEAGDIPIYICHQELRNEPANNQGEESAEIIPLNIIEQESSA
T1 sequence (O60896 24-148 partner): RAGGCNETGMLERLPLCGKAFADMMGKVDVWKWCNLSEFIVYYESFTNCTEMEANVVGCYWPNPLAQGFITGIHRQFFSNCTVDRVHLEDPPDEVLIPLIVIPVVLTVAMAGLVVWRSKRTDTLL

[3] = Assay (IX) pK, determination of T½ in mini-pig; type: in vivo, Göttingen mini-pigs; details: male, Göttingen, iv, 2 nmol/kg; minipig; plasma terminal half-life

Q: With CC[C@H](C)[C@H](NC(=O)[C@@H]1CCCN1C(=O)CNC(=O)[C@H](Cc1ccccc1)NC(=O)[C@H](CC(N)=O)NC(=O)[C@H](CC(N)=O)NC(=O)[C@H](CO)NC(=O)[C@H](CO)NC(=O)[C@H](Cc1c[nH]cn1)NC(=O)[C@H](Cc1c[nH]cn1)NC(=O)[C@H](CC(C)C)NC(=O)[C@H](Cc1ccccc1)NC(=O)[C@H](CCC(=O)O)NC(=O)[C@H](C)NC(=O)[C@H](CC(C)C)NC(=O)[C@H](CCCNC(=N)N)NC(=O)[C@H](CCC(N)=O)NC(=O)[C@@H](NC(=O)[C@H](C)NC(=O)[C@@H]1CSSC[C@H](NC(=O)[C@H](CCCCN)NC(=O)CC[C@H](NC(=O)CCCCCCCCCCCCCCCCCCC(=O)O)C(=O)O)C(=O)N[C@@H](CC(N)=O)C(=O)N[C@@H]([C@@H](C)O)C(=O)N[C@@H](C)C(=O)N[C@@H]([C@@H](C)O)C(=O)N1)[C@@H](C)O)C(=O)N[C@@H](CC(C)C)C(=O)N1CCC[C@H]1C(=O)N1CCC[C@H]1C(=O)N[C@H](C(=O)N[C@@H](CC(N)=O)C(=O)N[C@H](C(=O)NCC(=O)N[C@@H](CO)C(=O)N[C@@H](CC(N)=O)C(=O)N[C@H](C(=O)N[C@@H](Cc1ccc(O)cc1)C(N)=O)[C@@H](C)O)C(C)C)[C@@H](C)O [Example 27, N-alpha-[(S)-4-Carboxy-4-(19-carboxynonadecanoylamino)butyryl]-[Glu14,His17]-pramlintide] ({C20 diacid-γGlu}-KCNTATCATQRLAEFLHHSSNNFGPILPPTNVGSNTY-NH2; disulfide 2-7 (inferred)) as the compound, how does the “Food intake reduction 0-24 h 3 nmol/kg (%)” value [1] read?
A: 56%

Q: What about the “Food intake reduction 24-48 h 3 nmol/kg (%)” value [1] of the same compound?
A: 53%

Q: What about the EC50 [2] of the same compound?
A: 0.121 nM

Q: What about the half-life [3] of the same compound?
A: 90 h

Q: Which “Food intake reduction 0-24 h 3 nmol/kg (%)” value [1] does the source give for CC[C@H](C)[C@H](NC(=O)[C@@H]1CCCN1C(=O)CNC(=O)[C@H](Cc1ccccc1)NC(=O)[C@H](CC(N)=O)NC(=O)[C@H](CC(N)=O)NC(=O)[C@H](CO)NC(=O)[C@H](CO)NC(=O)[C@H](Cc1c[nH]cn1)NC(=O)[C@H](CCCNC(=N)N)NC(=O)[C@H](CC(C)C)NC(=O)[C@H](Cc1ccccc1)NC(=O)[C@H](CCC(=O)O)NC(=O)[C@H](C)NC(=O)[C@H](CC(C)C)NC(=O)[C@H](CCCNC(=N)N)NC(=O)[C@H](CCC(N)=O)NC(=O)[C@@H](NC(=O)[C@H](C)NC(=O)[C@@H]1CSSC[C@H](NC(=O)[C@H](CCCCN)NC(=O)CC[C@H](NC(=O)CCCCCCCCCCCCCCCCCCC(=O)O)C(=O)O)C(=O)N[C@@H](CC(N)=O)C(=O)N[C@@H]([C@@H](C)O)C(=O)N[C@@H](C)C(=O)N[C@@H]([C@@H](C)O)C(=O)N1)[C@@H](C)O)C(=O)N[C@@H](CC(C)C)C(=O)N1CCC[C@H]1C(=O)N1CCC[C@H]1C(=O)N[C@H](C(=O)N[C@@H](CC(N)=O)C(=O)N[C@H](C(=O)NCC(=O)N[C@@H](CO)C(=O)N[C@@H](CC(N)=O)C(=O)N[C@H](C(=O)N1CCC[C@H]1C(N)=O)[C@@H](C)O)C(C)C)[C@@H](C)O [Example 53, N-alpha-[(S)-4-Carboxy-4-(19-carboxynonadecanoylamino)butyryl]-[Glu14,Arg17,Pro37]-pramlintide] here?
A: 40%

Q: And the “Food intake reduction 24-48 h 3 nmol/kg (%)” value [1]?
A: 28%

Q: And the half-life [3]?
A: 98 h

Q: With CC[C@H](C)[C@H](NC(=O)[C@@H]1CCCN1C(=O)CNC(=O)[C@H](Cc1ccccc1)NC(=O)[C@H](CC(N)=O)NC(=O)[C@H](CC(N)=O)NC(=O)[C@H](CO)NC(=O)[C@H](CO)NC(=O)[C@H](Cc1c[nH]cn1)NC(=O)[C@H](Cc1c[nH]cn1)NC(=O)[C@H](CC(C)C)NC(=O)[C@H](Cc1ccccc1)NC(=O)[C@H](CCC(=O)O)NC(=O)[C@H](C)NC(=O)[C@H](CC(C)C)NC(=O)[C@H](CCCNC(=N)N)NC(=O)[C@H](CCC(N)=O)NC(=O)[C@@H](NC(=O)[C@H](C)NC(=O)[C@@H]1CSSC[C@H](NC(=O)[C@H](CCCCN)NC(=O)CC[C@H](NC(=O)CCCCCCCCCCCCCCCCC(=O)O)C(=O)O)C(=O)N[C@@H](CC(N)=O)C(=O)N[C@@H]([C@@H](C)O)C(=O)N[C@@H](C)C(=O)N[C@@H]([C@@H](C)O)C(=O)N1)[C@@H](C)O)C(=O)N[C@@H](CC(C)C)C(=O)N1CCC[C@H]1C(=O)N1CCC[C@H]1C(=O)N[C@H](C(=O)N[C@@H](CC(N)=O)C(=O)N[C@H](C(=O)NCC(=O)N[C@@H](CO)C(=O)N[C@@H](Cc1c[nH]cn1)C(=O)N[C@H](C(=O)N[C@@H](Cc1ccc(O)cc1)C(N)=O)[C@@H](C)O)C(C)C)[C@@H](C)O [Example 59, N-alpha-[(S)-4-Carboxy-4-(17-carboxyheptadecanoylamino)butyryl]-[Glu14,His17,His35]-pramlintide] ({C18 diacid-γGlu}-KCNTATCATQRLAEFLHHSSNNFGPILPPTNVGSHTY-NH2; disulfide 2-7 (inferred)) as the compound, how does the “Food intake reduction 0-24 h 3 nmol/kg (%)” value [1] read?
A: 59%

Q: What about the “Food intake reduction 24-48 h 3 nmol/kg (%)” value [1] of the same compound?
A: 27%

Q: And the EC50 [2]?
A: 0.056 nM

Q: And the half-life [3]?
A: 59 h

Q: With CC[C@H](C)[C@H](NC(=O)[C@@H]1CCCN1C(=O)CNC(=O)[C@H](Cc1ccccc1)NC(=O)[C@H](CC(N)=O)NC(=O)[C@H](CCC(N)=O)NC(=O)[C@H](CO)NC(=O)[C@H](CO)NC(=O)[C@H](Cc1c[nH]cn1)NC(=O)[C@H](Cc1c[nH]cn1)NC(=O)[C@H](CC(C)C)NC(=O)[C@H](Cc1ccccc1)NC(=O)[C@H](CCC(=O)O)NC(=O)[C@H](C)NC(=O)[C@H](CC(C)C)NC(=O)[C@H](CCCNC(=N)N)NC(=O)[C@H](CCC(N)=O)NC(=O)[C@@H](NC(=O)[C@H](C)NC(=O)[C@@H]1CSSC[C@H](NC(=O)[C@H](CCCCN)NC(=O)CC[C@H](NC(=O)CCCCCCCCCCCCCCCCCCC(=O)O)C(=O)O)C(=O)N[C@@H](CC(N)=O)C(=O)N[C@@H]([C@@H](C)O)C(=O)N[C@@H](C)C(=O)N[C@@H]([C@@H](C)O)C(=O)N1)[C@@H](C)O)C(=O)N[C@@H](CC(C)C)C(=O)N1CCC[C@H]1C(=O)N1CCC[C@H]1C(=O)N[C@H](C(=O)N[C@@H](CC(N)=O)C(=O)N[C@H](C(=O)NCC(=O)N[C@@H](CO)C(=O)N[C@@H](Cc1c[nH]cn1)C(=O)N[C@H](C(=O)N[C@@H](Cc1ccc(O)cc1)C(N)=O)[C@@H](C)O)C(C)C)[C@@H](C)O [Example 117, N-alpha-[(S)-4-Carboxy-4-(19-carboxynonadecanoylamino)butyryl]-[Glu14,His17,Gln21,His35)-pramlintide] ({C20 diacid-γGlu}-KCNTATCATQRLAEFLHHSSQNFGPILPPTNVGSHTY-NH2; disulfide 2-7 (inferred); C-terminus assumed) as the compound, how does the “Food intake reduction 0-24 h 3 nmol/kg (%)” value [1] read?
A: 50%

Q: What about the “Food intake reduction 24-48 h 3 nmol/kg (%)” value [1] of the same compound?
A: 35%

Q: What about the EC50 [2] of the same compound?
A: 0.156 nM

Q: With CC[C@H](C)[C@H](NC(=O)[C@@H]1CCCN1C(=O)CNC(=O)[C@H](Cc1ccccc1)NC(=O)[C@H](CC(N)=O)NC(=O)[C@H](CC(N)=O)NC(=O)[C@H](CO)NC(=O)[C@H](CO)NC(=O)[C@H](CCCNC(=N)N)NC(=O)[C@H](Cc1c[nH]cn1)NC(=O)[C@H](CC(C)C)NC(=O)[C@H](Cc1ccccc1)NC(=O)[C@H](CCC(=O)O)NC(=O)[C@H](C)NC(=O)[C@H](CC(C)C)NC(=O)[C@H](CCCNC(=N)N)NC(=O)[C@H](CCC(N)=O)NC(=O)[C@@H](NC(=O)[C@H](C)NC(=O)[C@@H]1CSSC[C@H](NC(=O)[C@H](CCCN)NC(=O)[C@@H](CCCNC(=N)N)NC(=O)[C@@H](CCCNC(=N)N)NC(=O)COCCOCCNC(=O)COCCOCCNC(=O)CC[C@H](NC(=O)CCCCCCCCCCCCCCCCC(=O)O)C(=O)O)C(=O)N[C@@H](CC(N)=O)C(=O)N[C@@H]([C@@H](C)O)C(=O)N[C@@H](C)C(=O)N[C@@H]([C@@H](C)O)C(=O)N1)[C@@H](C)O)C(=O)N[C@@H](CC(C)C)C(=O)N1CCC[C@H]1C(=O)N1CCC[C@H]1C(=O)N[C@H](C(=O)N[C@@H](CC(N)=O)C(=O)N[C@H](C(=O)NCC(=O)N[C@@H](CO)C(=O)N[C@@H](CC(N)=O)C(=O)N[C@H](C(=O)N[C@@H](Cc1ccc(O)cc1)C(N)=O)[C@@H](C)O)C(C)C)[C@@H](C)O [Example 120, N-alpha-[2-(2-{2-[2-(2-{2-[(S)-4-Carboxy-4-(17-carboxyheptadecanoylamino)butyrylamino]ethoxy}ethoxy)acetylamino]ethoxy}ethoxy)acetyl]-D-Arg-D-Arg-[Orn1,Glu14,His17,Arg18]-pramlintide] ({C18 diacid-γGlu-AEEA-AEEA}-[dR][dR][Orn]CNTATCATQRLAEFLHRSSNNFGPILPPTNVGSNTY-NH2; disulfide 4-9 (inferred); C-terminus assumed) as the compound, how does the “Food intake reduction 0-24 h 3 nmol/kg (%)” value [1] read?
A: 53%

Q: What about the “Food intake reduction 24-48 h 3 nmol/kg (%)” value [1] of the same compound?
A: 2%

Q: And the EC50 [2]?
A: 0.0295 nM
